The conditions of data set [1]: weak acid; cited from earlier work.
The next data set concerns the target MDR1 (Homo sapiens, UniProt P08183). Description: ATP consumption by membrane preparations containing MDR1. In kind it is biochemical. The settings on record: data not shown.
The conditions of data set [2]: can approach; cited from earlier work.
The conditions of data set [3]: cited from earlier work.
In data set [4] the target is T1, OATP2B1 (Homo sapiens, UniProt O94956).
T1 sequence (O94956 1-709): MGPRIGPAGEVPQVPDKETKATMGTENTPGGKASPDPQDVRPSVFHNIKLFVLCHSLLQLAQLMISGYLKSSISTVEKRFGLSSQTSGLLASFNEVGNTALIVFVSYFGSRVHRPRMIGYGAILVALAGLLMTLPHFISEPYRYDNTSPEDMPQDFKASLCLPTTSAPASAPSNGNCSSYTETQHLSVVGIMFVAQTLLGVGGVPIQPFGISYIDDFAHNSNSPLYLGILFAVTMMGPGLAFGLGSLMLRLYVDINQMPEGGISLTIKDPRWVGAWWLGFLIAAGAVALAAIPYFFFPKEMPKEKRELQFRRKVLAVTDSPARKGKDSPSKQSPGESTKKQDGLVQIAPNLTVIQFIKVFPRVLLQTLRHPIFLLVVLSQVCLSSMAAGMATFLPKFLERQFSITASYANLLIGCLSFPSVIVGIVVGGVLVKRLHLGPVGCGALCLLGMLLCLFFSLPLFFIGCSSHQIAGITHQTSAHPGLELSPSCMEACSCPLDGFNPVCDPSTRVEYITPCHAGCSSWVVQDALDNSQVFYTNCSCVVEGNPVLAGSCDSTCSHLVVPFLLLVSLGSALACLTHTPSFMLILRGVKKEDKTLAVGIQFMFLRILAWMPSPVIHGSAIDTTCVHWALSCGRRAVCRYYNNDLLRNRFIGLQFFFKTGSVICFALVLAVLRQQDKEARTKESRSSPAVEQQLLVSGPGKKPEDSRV
Description: Permeability in OATP2B1 expressing MDCKII cell line. The following applies: basolateral → apical, pH 7.5, 1 h 37°C.

For another data set, the system named is Caco-2 cells. The settings on record: for Papp±SD of montelukast (% of control) / effect on permeability of montelukast: 125 µM competitor; for Papp±SD of montelukast (% of control) / montelukast permeability, % of control: Caco-2; for Papp±SD of montelukast (% of control): control without additional drug; for effect on permeability of montelukast: Caco-2, p<0.05. A general note: Passage across Caco-2 layers is used to estimate intestinal permeability.

Data set [5] has as its system OATP2B1. The settings on record: up; substrate dependent; cited from earlier work.

The text below walks through data of article PMC2641037 (Pharmacogenetics and genomics, 2009).

Usually pKa stands for the negative logarithm of the acid dissociation constant.

Where a name gives a salt, the structure may show the parent alone. Read-outs that look alike come from different tables or passages of the source.

Sequence of MDR1 (P08183 whole entry, species assumed): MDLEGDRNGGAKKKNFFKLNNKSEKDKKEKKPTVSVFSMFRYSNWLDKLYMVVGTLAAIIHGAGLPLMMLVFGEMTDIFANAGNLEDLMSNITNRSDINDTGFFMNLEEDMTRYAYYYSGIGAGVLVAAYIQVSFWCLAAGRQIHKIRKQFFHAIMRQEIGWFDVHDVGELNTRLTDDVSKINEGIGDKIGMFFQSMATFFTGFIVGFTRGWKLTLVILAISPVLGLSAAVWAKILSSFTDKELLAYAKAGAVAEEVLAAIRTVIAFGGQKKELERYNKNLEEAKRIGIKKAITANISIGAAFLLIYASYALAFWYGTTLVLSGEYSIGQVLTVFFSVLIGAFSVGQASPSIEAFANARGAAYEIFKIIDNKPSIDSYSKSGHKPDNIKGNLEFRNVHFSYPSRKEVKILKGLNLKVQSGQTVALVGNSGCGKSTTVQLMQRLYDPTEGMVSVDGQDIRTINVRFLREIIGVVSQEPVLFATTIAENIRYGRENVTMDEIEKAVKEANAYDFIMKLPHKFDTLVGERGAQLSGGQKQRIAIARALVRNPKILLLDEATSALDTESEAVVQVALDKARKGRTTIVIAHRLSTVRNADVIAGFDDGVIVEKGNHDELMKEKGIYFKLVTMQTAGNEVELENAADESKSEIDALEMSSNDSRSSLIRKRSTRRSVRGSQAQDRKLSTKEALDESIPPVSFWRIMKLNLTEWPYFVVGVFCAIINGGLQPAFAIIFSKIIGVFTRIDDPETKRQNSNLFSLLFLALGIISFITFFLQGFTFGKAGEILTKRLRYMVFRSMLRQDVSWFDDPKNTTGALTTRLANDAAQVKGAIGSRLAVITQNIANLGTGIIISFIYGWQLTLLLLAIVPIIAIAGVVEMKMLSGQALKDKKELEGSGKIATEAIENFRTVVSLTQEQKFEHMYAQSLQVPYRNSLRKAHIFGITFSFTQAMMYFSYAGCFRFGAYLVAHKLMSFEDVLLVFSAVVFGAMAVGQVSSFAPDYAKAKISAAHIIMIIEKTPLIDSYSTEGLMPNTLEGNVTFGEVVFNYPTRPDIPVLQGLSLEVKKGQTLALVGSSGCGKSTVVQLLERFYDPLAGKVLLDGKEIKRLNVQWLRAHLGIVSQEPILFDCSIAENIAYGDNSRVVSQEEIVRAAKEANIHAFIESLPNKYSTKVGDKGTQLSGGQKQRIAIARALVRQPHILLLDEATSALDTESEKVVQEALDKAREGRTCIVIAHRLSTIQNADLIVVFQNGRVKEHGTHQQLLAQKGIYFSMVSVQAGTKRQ

On to `CC(C)(O)c1ccccc1CC[C@@H](SCC1(CC(=O)O)CC1)c1cccc(/C=C/c2ccc3ccc(Cl)cc3n2)c1` [montelukast, Montelukast], for which the pKa in data set [1] was 5.7. The “stimulation of ATP consumption by MDR1 membrane preparations” value on MDR1 is “does not stimulate ATP consumption”. Besides, the poor response rate in data set [2] is recorded as 60 to 70%. The “binding to plasma albumin” value in data set [3] was “highly bound”. In addition, on OATP2B1 [4], the “permeability in MDCKII-OATP2B1, % of control (parental MDCKII)” value is recorded as 140±20 % of control. Turning to `NS(=O)(=O)c1cc(C(=O)O)c(NCc2ccco2)cc1Cl` [Furosemide, furosemide], the “Papp±SD of montelukast (% of control)” value in the data set on Caco-2 cells is on record as 95±8 % of control. Turning to `C[C@H](CCC(=O)NCCS(=O)(=O)O)[C@H]1CC[C@H]2[C@@H]3[C@H](O)C[C@@H]4C[C@H](O)CC[C@]4(C)[C@H]3C[C@H](O)[C@]12C` [Taurocholic acid, taurocholic acid, sodium salt], in the data set with Caco-2 cells, the “effect on permeability of montelukast” value is reported as “cis-inhibit permeability” and the “Papp±SD of montelukast (% of control)” value is 84±9 % of control. As to `CCCN(CCC)S(=O)(=O)c1ccc(C(=O)O)cc1` [Probenecid, probenecid], the “Papp±SD of montelukast (% of control)” value in the data set with Caco-2 cells was 90±10 % of control.

With `CN(C)C(=O)CCSC(SCCC(=O)O)c1cccc(/C=C/c2ccc3ccc(Cl)cc3n2)c1` (stereo not drawn) [MK571, MK571, sodium salt], in the data set with Caco-2 cells, the “effect on permeability of montelukast” value is on record as “enhance permeability” and the “Papp±SD of montelukast (% of control)” value is 130±10 % of control. For `CC[C@H](C)C(=O)O[C@H]1C[C@H](O)C=C2C=C[C@H](C)[C@H](CC[C@@H](O)C[C@@H](O)CC(=O)O)[C@H]21` [Pravastatin, pravastatin], in the data set on Caco-2 cells, the “effect on permeability of montelukast” value was “cis-inhibit permeability” and the “Papp±SD of montelukast (% of control)” value is listed as 83±8 % of control. In the case of `CC(=O)[C@H]1CC[C@H]2[C@@H]3CCC4=CC(=O)CC[C@]4(C)[C@H]3CC[C@]12C` [progesterone], the “allosteric activation of OATP2B1 transport of estrone-3-sulfate” value with OATP2B1 [5] is listed as “up to 300%”. Moreover, the “montelukast permeability, % of control” value in the data set on Caco-2 cells (5 µM progesterone in donor reservoir) is 150±10 % of control; in the data set with Caco-2 cells (15 µM progesterone in donor reservoir), 140±10 % of control; with Caco-2 cells (30 µM progesterone in donor reservoir), 160±10 % of control. As for `O=c1c(-c2ccc(O)cc2)coc2cc(O)cc(O)c12` [Genistein, genistein], in the data set on Caco-2 cells, the “Papp±SD of montelukast (% of control)” value is 110±10 % of control. `CCCCNc1cc(C(=O)O)cc(S(N)(=O)=O)c1Oc1ccccc1` [Bumetanide, bumetanide]: in the data set on Caco-2 cells, the “Papp±SD of montelukast (% of control)” value is 100±10 % of control. For the compound `O=C1OC(c2ccc(O)c(S(=O)(=O)O)c2)(c2ccc(O)c(S(=O)(=O)O)c2)c2c(Br)c(Br)c(Br)c(Br)c21` [Sulfobromophthalein, sulfobromophthalein], in the data set with Caco-2 cells, the “effect on permeability of montelukast” value is “cis-inhibit permeability” and the “Papp±SD of montelukast (% of control)” value is 72±7 % of control. Take `C=C(CC)C(=O)c1ccc(OCC(=O)O)c(Cl)c1Cl` [Ethacrynic acid, ethacrynic acid]: the “Papp±SD of montelukast (% of control)” value in the data set with Caco-2 cells is recorded as 100±10 % of control. Consider `CN/C(=N/CCSCc1nc[nH]c1C)NC#N` [Cimetidine, cimetidine], for which, in the data set on Caco-2 cells, the “effect on permeability of montelukast” value was “enhance permeability” and the “Papp±SD of montelukast (% of control)” value is recorded as 120±10 % of control. On to `C[C@H](CCC(=O)O)[C@H]1CC[C@H]2[C@@H]3CC[C@@H]4C[C@H](O)CC[C@]4(C)[C@H]3C[C@H](O)[C@]12C` [Deoxycholic acid, deoxycholic acid, sodium salt], for which the “Papp±SD of montelukast (% of control)” value in the data set on Caco-2 cells is 110±10 % of control. Regarding `C[C@H](CCC(=O)O)[C@H]1CC[C@H]2[C@@H]3[C@H](O)C[C@@H]4C[C@H](O)CC[C@]4(C)[C@H]3CC[C@]12C` [Chenodeoxycholic acid, chenodeoxycholic acid, sodium salt], the “Papp±SD of montelukast (% of control)” value in the data set on Caco-2 cells is reported as 90±10 % of control. Turning to `Nc1nc2ncc(CNc3ccc(C(=O)N[C@@H](CCC(=O)O)C(=O)O)cc3)nc2c(=O)[nH]1` [Folic acid, folic acid], in the data set on Caco-2 cells, the “effect on permeability of montelukast” value is listed as “enhance permeability” and the “Papp±SD of montelukast (% of control)” value is given as 130±20 % of control. Turning to `C[C@]12CC[C@@H]3c4ccc(OS(=O)(=O)[O-])cc4CC[C@H]3[C@@H]1CCC2=O.[Na+]` [Estrone 3-sulfate, estrone 3-sulfate, sodium salt], the “enhancement of permeability in OATP2B1 expressing cell line relative to control” value on OATP2B1 [4] is 280±40%. As for `O=S(=O)(O)c1cc(N=C=S)ccc1C=Cc1ccc(N=C=S)cc1S(=O)(=O)O` [DIDS, 4,4'-Diisothiocyanostilbene-2,2'-disulfonic acid], the “Papp±SD of montelukast (% of control)” value with Caco-2 cells is on record as 100±20 % of control.
